According to US5317019A, “Inhibition of interleukin-1 and tumor necrosis factor production by monocytes and/or macrophages” (priority 1991, dated 1994):

system: endotoxin shock in mice; assay: In vivo endotoxin shock models (P. acnes and/or LPS-GAL); design: species or system mouse (C57BL/6); details: one or both in vivo models
Excerpt: Two models of endotoxin shock have been utilized to determine in vivo TNF activity and are described below. The actual protocol used in the models is described in Utility Model Examples A and B set out below, i.e. P. acnes model and LPS-GAL model.
The protocol used to test the compound of the method of the subject invention was essentially as has been described in Galanos et al., Proc. Nat'l Acad. Sci USA, 76:5939-43 (1979) whose disclosure is herein incorporated by reference. Briefly, D-gal […] sensitizes various strains of mice to the lethal effects of endotoxin. The administration of D-gal (300-500 mg/kg) intravenously (i.v.) sensitizes the mice to doses of Lipopolysaccharide(LPS ) as low as 0.1 mg. Briefly, male C57BL/6 mice, obtained from Charles River Laboratories (Stone Ridge, N.Y., USA) of 6-12 weeks of age were injected i.v. with 0.1 mg of LPS from Salmonella typhosa (Difco Laboratories, Detroit, Mich., USA) admixed with D(+)-gal (Sigma; 500 mg/kg) in 0.20-0.25 ml pyrogen-free saline. Compounds to be tested were administered at various times prior to or following the i.v. injection of LPS/D-gal. In this model, the control animals usually die 5-6 hr. following the injection of LPS, although on occasion deaths are seen between 24 and 48 hr.
This model is a modification of the previously described protocol for the in vivo induction of TNF as described in Haranaka et al., Cancer Immunol Immunother. 18:81-90, (1984). Treatment with Proprionibacterium Acnes (P. acnes) (1 mg/animal i.p.) renders mice susceptible to the lethal effects of LPS injected 10 days later.
P. acnes was purchased from Burroughs Wellcome (Triangle Park, N.C., USA), and […] of the heat-killed bacteria was administered in 0.5 ml pyrogen-free saline by intraperitoneal (i.p.) injection to male C57BL/6 mice, obtained from Charles River Laboratories (Stone Ridge, N.Y., USA) of 6-12 weeks of age. Ten days later, the mice were injected i.v. with 1 mg LPS in 0.25 ml saline. Compounds to be tested were administered at various times prior to or following the injection of LPS. The survival of animals was monitored for 1 week.
Plasma levels of TNF were measured using a modification of the basic sandwich ELISA method described in Winston et al., Current Protocols in Molecular Biology, Pg. 11.2.1, Ausubel et al., Ed. (1987) John Wiley and Sons, New York, USA. The Elisa employed a hampster monoclonal anti-mouse TNF (Genzyme, Boston, Mass., USA ) as the capture antibody and a polyclonal rabbit anti-murine TNF (Genzyme, Boston, Mass., USA ) as the detecting antibody. TNF levels in rat samples were calculated from a standard curve generated with recombinant murine TNF (Genzyme, Boston, Mass., USA). TNF levels determined by ELISA correlated with levels detected by the L929 bioassay of Ruff et. al., J. Immunol. 125:1671-1677 (1980), with 1 Unit of activity in the bioassay corresponding to 70 picograms (pg) of TNF in the ELISA. The ELISA detected levels of TNF down to 25 pg/ml.

Compound | Inhibition of in vivo TNF levels / in vivo activity | Protection from lethal effects of endotoxin shock
O=S1(=O)CCn2c1nc(-c1ccc(F)cc1)c2-c1ccncc1 [Compound J, 6-(4-Fluorophenyl)-5-(4-pyridyl)-2,3-dihydroimidazo[2,1-b]thiazole-1,1-dioxide] | inhibited in vivo TNF levels | protected the animals from endotoxic induced shock

system: TNF production by human monocytes; assay: In vitro TNF production by LPS-stimulated human monocytes (ELISA); type: cell-based; details: Homo sapiens, Monocyte; Table B; LPS 50 ng/ml, 24 h; read-out: IC50, LPS induced TNF human monocyte data
Description: The effects of the compounds enumerated above on the in vitro production of TNF by human monocytes was examined using the following protocol.
Bacterial lipopolysaccharide (LPS) was used to induce TNF production by human peripheral blood monocytes. TNF activity was measured by a modification of Winston et al., ELISA, described below. […] The cells were allowed to adhere for 2 hours, after which time non-adherent cells were removed by gentle washing. […] At the end of the incubation period, culture supernatants were removed and clarified of cells and all debris. Culture supernatants were immediately assayed for TNF levels in the manner described below.
The Elisa employes a murine monoclonal anti-human TNF antibody, described below, as the capture antibody and a polyclonal rabbit anti-human TNF, described below, as the second antibody. […] TNF levels in samples were calculated from a standard curve genereated with recombinant human TNF produced in E. Coli (obtained from SmithKIine Beecham Pharmaceuticals, King of Prussia, Pa., USA).
Polyclonal rabbit anti-human TNF antibodies were prepared by repeated immunization of New Zeland White (NZW) rabbits with recombinant human TNF emulsified in complete Freund's adjuvant (DEFCO, Ill., USA).

IC50 [nM] | Compound
200 | Fc1ccc(-c2nc3n(c2-c2ccncc2)CCC3)cc1 [Compound M, 2-(4-Fluorophenyl)-3-(4-pyridyl)-6,7-dihydro-[5H]-pyrrolo-[1,2-a]-imidazole]
500 | COc1ccc(-c2nc3n(c2-c2ccncc2)CCC3)cc1 [Compound 24, 2-(4-Methoxyphenyl)-3-(4-pyridyl)-6,7-dihydro-[5H]-pyrrolo-[1,2-a]-imidazole]
1000 | Fc1ccc(-c2c(-c3ccncc3)nc3n2CCC3)cc1 [Compound N, 3-(4-Fluorophenyl)-2-(4-pyridyl)-6,7-dihydro-[5H]-pyrrolo-[1,2-a]-imidazole]

Further lines, the compound ahead of its results:

Compound | IC50 [nM]
[O-][S+]1CCn2c1nc(-c1ccc(F)cc1)c2-c1ccncc1 (stereo not drawn) [Compound I, 6-(4-Fluorophenyl)-5-(4'-pyridyl)-2,3-dihydroimidazo[2,1-b]thiazole-1-oxide] | 200
O=S1(=O)CCn2c1nc(-c1ccc(F)cc1)c2-c1ccncc1 [Compound J, 6-(4-Fluorophenyl)-5-(4-pyridyl)-2,3-dihydroimidazo[2,1-b]thiazole-1,1-dioxide] | 9000
COc1ccc(-c2nc3n(c2-c2ccncc2)CCC3=O)cc1 [Compound E, 2-(4-Methoxyphenyl)-3-(4-pyridyl)-7-oxo-5,6-dihydro-7-H-pyrrolo-[1,2-a]imidazole] | 1000
COc1ccc(-c2nc3n(c2-c2ccncc2)CCC3O)cc1 (stereo not drawn) [Compound F, 5,6-dihydro-2-(4-methoxyphenyl)-3-(4-pyridinyl)-[7H]-pyrrolo[1,2-a]-imidazole-7-ol] | 1000
CC(=O)OCSc1ccc(-c2nc3n(c2-c2ccncc2)CCC3)cc1 [Compound 10, 2-(4-acetoxymethylthiophenyl)-3-(4-pyridyl)-6,7-dihydro-[5H]-pyrrolo-[1,2-a]-imidazole] | 3000

same assay, conditions: Table B; LPS 50 ng/ml, 24 h; read-out: IC50, LPS induced TNF human monocyte data

Compound | IC50 [nM]
2-phenyl-3-pyridyl-6,7-dihydro-[5H]-pyrrolo[1,2-a]imidazole [Compound C] | 800
2-p-bromophenyl-3-pyridyl-6,7-dihydro-[5H]-pyrrolo-[1,2-a]-imidazole [Compound D] | 1000

system: IL-1 production by human monocytes; assay: In vitro IL-1 production by LPS-stimulated human monocytes; type: cell-based; details: Homo sapiens, Monocyte; Table 1; LPS 50 ng/ml, 24 h; read-out: IC50, effect on LPS-stimulated IL-1 production by human monocytes
Description: Bacterial lipopolysaccharide (LPS) was used to induce IL-1 production by human peripheral blood monocytes. IL-1 activity was measured by its ability to stimulate a Interleukin 2 (IL-2) producing cell line […] to secrete IL-2, in concert with A23187 ionophore, according to the method of Simon et al., J. Immunol. […] The cells were allowed to adhere for 2 hours, after which time non-adherent cells were removed by gentle washing. […] At the end of the incubation period, culture supernatants were removed and clarified of cells and all debris.

IC50 [nM] | Compound
2000 | CSc1ccc(-c2c(-c3ccncc3)nc3n2CCC3)cc1 [Compound 13, 3-(4-methylthiophenyl)-2-(4-pyridyl)-6,7-dihydro-[5H]-pyrrolo-[1,2-a]-imidazole]
1800 | CSc1ccc(-c2nc3n(c2-c2ccncc2)CCS3)cc1 [Compound 11, 6-(4-methylthiophenyl)-5-(4-pyridyl)-2,3-dihydro-imidazo-[2,1-b]-thiazole]
1800 | CSc1ccc(-c2c(-c3ccncc3)nc3n2CCS3)cc1 [Compound 12, 5-(4-methylthiophenyl)-6-(4-pyridyl)-2,3-dihydro-imidazo-[2,1-b]-thiazole]
> 10000 | CCCSc1ccc(-c2nc3n(c2-c2ccncc2)CCC3)cc1 [Compound 14, 2-(4-propylthiophenyl)-3-(4-pyridyl)-6,7-dihydro-[5H]-pyrrolo-[1,2-a]-imidazole]

More lines, now with the values behind:

Compound | IC50 [nM]
CCc1cc(-c2c(-c3ccc(SC)cc3)nc3n2CCC3)ccn1 [Compound 15, 2-(4-methylthiophenyl)-3-(4-(2-ethyl)pyridyl)-6,7-dihydro-[5H]-pyrrolo-[1,2-a-]-imidazole] | 1300
COc1ccc(-c2nc3ccccn3c2-c2ccncc2)cc1 [Compound 7, 2-(4-methoxyphenyl)-3-(4-pyridyl)-imidazo-[1,2-a]-pyridine] | 1000
COc1ccc(-c2nc3n(c2-c2ccnc(C)c2)CCC3)cc1 [Compound 9, 2-(4-methoxyphenyl)-3-(4-(2-methyl)pyridyl)-6,7-dihydro-[5H]-pyrrolo-[1,2-a]-imidazole] | 700
CC(=O)OCSc1ccc(-c2nc3n(c2-c2ccncc2)CCC3)cc1 [Compound 10, 2-(4-acetoxymethylthiophenyl)-3-(4-pyridyl)-6,7-dihydro-[5H]-pyrrolo-[1,2-a]-imidazole] | 6300
c1cc(-c2nc3n(c2-c2ccc4c(c2)OCO4)CCS3)ccn1 [Compound 8, 5-(3,4-(methylenedioxy)phenyl)-6-(4-pyridyl)-2,3-dihydroimidazo-[2-1-b]-thiazole] | 10000

same assay, conditions: Homo sapiens, Monocyte; Table 3; read-out: IC50, inhibition of IL-1 production by LPS stimulated monocytes in vitro

IC50 [nM] | Compound
> 10000 | CCCOc1ccc(-c2nc3n(c2-c2ccncc2)CCC3)cc1 [Compound 19, 2-(4-(1-Propoxy)phenyl)-3-(4-pyridyl)-6,7-dihydro[5H]pyrrolo-[1,2-a]-imidazole]
700 | Brc1ccc(-c2nc3n(c2-c2ccncc2)CCC3)cc1 [Compound 27, 2-(4-Bromophenyl)-3-(4-pyridyl)-6,7-dihydro-[5H]-pyrrolo-[1,2-a]-imidazole]
> 10000 | CC(C)Oc1ccc(-c2nc3n(c2-c2ccncc2)CCC3)cc1 [Compound 17, 2-(4-(2-Propoxy)phenyl)-3-(4-pyridyl)-6,7-dihydro-[5H]-pyrrolo-[1,2-a]-imidazole]
100 | COc1ccc(-c2nc3n(c2-c2ccncc2)CCC3)cc1 [Compound 24, 2-(4-Methoxyphenyl)-3-(4-pyridyl)-6,7-dihydro-[5H]-pyrrolo-[1,2-a]-imidazole]
10000 | CCOc1ccc(-c2nc3n(c2-c2ccncc2)CCC3)cc1 [Compound 18, 2-(4-(1-Ethoxy)phenyl)-3-(4-pyridyl)-6,7-dihydro[5H]pyrrolo-[1,2-a]-imidazole]

Second part, the compound before the results:

Compound | IC50 [nM]
c1ccc(-c2nc3n(c2-c2ccncc2)CCC3)cc1 [Compound 22, 2-Phenyl-3-(4-pyridyl)-6,7-dihydro-[5H]-pyrrolo-[1,2-a]imidazole] | 500
COc1ccc(-c2c(-c3ccncc3)nc3n2CCS3)cc1 [Compound 26, 5-(4-Methoxyphenyl)-6-(4-pyridyl)-2,3-dihydroimidazole-[2,1-b]-thiazole] | ≥ 10000
COc1ccc(-c2nc3n(c2-c2ccncc2)CCS3)cc1 [Compound 25, 6-(4-Methoxyphenyl)-5-(4-pyridyl)-2,3-dihydroimidazo-[2,1-b]-thiazole] | 3000
c1cc(-c2c(-c3ccc(SSc4ccc(-c5nc6n(c5-c5ccncc5)CCC6)cc4)cc3)nc3n2CCC3)ccn1 [Compound 23, 2-(4-Mercaptophenyl)-3-(4-pyridyl)-6,7-dihydro-[5H]-pyrrolo-[1,2-a]-imidazole disulfide] | 5900

same assay, conditions: Table 3; read-out: IC50, inhibition of IL-1 production by LPS stimulated monocytes in vitro

Compound | IC50 [nM]
2-[Trimethylacetyl(thiophenyl)]-3-(4-pyridyl)-6,7-dihydro[5H]pyrrolo-[1,2-a]-imidazole [Compound 16] | > 10000
COc1ccc(-c2c(-c3ccncc3)n3c([n+]2C)CCC3)cc1 [Compound 21, 2-(4-Methoxyphenyl)-3-(4-pyridyl)-6,7-dihydro-[5H]-pyrrolo-[1,2-a]-N-methylimidazole, monomethylsulfate] | > 10000
2-(Acetyl-thio-phenyl)-3-(4-pyridyl)-6,7-dihydro[5H]-pyrrolo-[1,2-a]-imidazole [Compound 20] | > 10000
